ChEMBL document CHEMBL5303573, “Mapping human microbiome drug metabolism by gut bacteria and their genes” (Nature, 2019)

Columns and labels:
[1] = The drug is tested on Bacteroides caccae strain: ATCC43185 for biotransformation. The drug concentrations were measured before and after a 12-h incubation by liquid-chromatography-coupled mass spectrometry (LC–MS); conditions: 2 µM
[2] = The drug is tested on Dorea formicigenerans strain: ATCC27755 for biotransformation. The drug concentrations were measured before and after a 12-h incubation by liquid-chromatography-coupled mass spectrometry (LC–MS); conditions: 2 µM
[3] = The drug is tested on Anaerotruncus colihominis strain: DSM17241 for biotransformation. The drug concentrations were measured before and after a 12-h incubation by liquid-chromatography-coupled mass spectrometry (LC–MS); conditions: 2 µM
[4] = The drug is tested on Bacteroides ovatus strain: ATCC8483 for biotransformation. The drug concentrations were measured before and after a 12-h incubation by liquid-chromatography-coupled mass spectrometry (LC–MS); conditions: 2 µM
[5] = The drug is tested on Clostridium asparagiforme strain: DSM15981 for biotransformation. The drug concentrations were measured before and after a 12-h incubation by liquid-chromatography-coupled mass spectrometry (LC–MS); assay type: ADME; set-up: dose 2 uM, timepoint 0 vs 12 hours; conditions: enterocloster asparagiformis, 2 µM
[6] = The drug is tested on Bacteroides uniformis strain: ATCC8492 for biotransformation. The drug concentrations were measured before and after a 12-h incubation by liquid-chromatography-coupled mass spectrometry (LC–MS); conditions: 2 µM
[7] = The drug is tested on Bacteroides finegoldii strain: DSM17565 for biotransformation. The drug concentrations were measured before and after a 12-h incubation by liquid-chromatography-coupled mass spectrometry (LC–MS); conditions: 2 µM
[8] = The drug is tested on Alistipes indistinctus strain: DSM22520 for biotransformation. The drug concentrations were measured before and after a 12-h incubation by liquid-chromatography-coupled mass spectrometry (LC–MS); conditions: 2 µM
[9] = The drug is tested on Coprococcus comes strain: ATCC27758 for biotransformation. The drug concentrations were measured before and after a 12-h incubation by liquid-chromatography-coupled mass spectrometry (LC–MS); assay type: ADME; set-up: dose 2 uM, timepoint 0 vs 12 hours; conditions: 2 µM
[10] = The drug is tested on Enterobacter cancerogenus strain: ATCC35316 for biotransformation. The drug concentrations were measured before and after a 12-h incubation by liquid-chromatography-coupled mass spectrometry (LC–MS); conditions: 2 µM
[11] = The drug is tested on Ruminococcus torques strain: ATCC27756 for biotransformation. The drug concentrations were measured before and after a 12-h incubation by liquid-chromatography-coupled mass spectrometry (LC–MS); assay type: ADME; set-up: dose 2 uM, timepoint 0 vs 12 hours; conditions: 2 µM
[12] = The drug is tested on Odoribacter splanchnicus strain: fecal isolate for biotransformation. The drug concentrations were measured before and after a 12-h incubation by liquid-chromatography-coupled mass spectrometry (LC–MS); conditions: 2 µM
[13] = The drug is tested on Collinsella aerofaciens strain: ATCC25986 for biotransformation. The drug concentrations were measured before and after a 12-h incubation by liquid-chromatography-coupled mass spectrometry (LC–MS); conditions: 2 µM
[14] = The drug is tested on Bifidobacterium ruminantium strain: fecal isolate for biotransformation. The drug concentrations were measured before and after a 12-h incubation by liquid-chromatography-coupled mass spectrometry (LC–MS); conditions: 2 µM
[15] = The drug is tested on Bacteroides coprophilus strain: DSM18228 for biotransformation. The drug concentrations were measured before and after a 12-h incubation by liquid-chromatography-coupled mass spectrometry (LC–MS); conditions: 2 µM
[16] = bacteroides thetaiotaomicron, 12 h, 2 µM
Description: The drug is tested on Bacteroides thetaiotaomicron strain: 7330 for biotransformation. The drug concentrations were measured before and after a 12-h incubation by liquid-chromatography-coupled mass spectrometry (LC–MS)

[17] = The drug is tested on Enterococcus faecalis strain: V583 for biotransformation. The drug concentrations were measured before and after a 12-h incubation by liquid-chromatography-coupled mass spectrometry (LC–MS); conditions: 2 µM
[18] = The drug is tested on Parabacteroides merdae strain: ATCC43184 for biotransformation. The drug concentrations were measured before and after a 12-h incubation by liquid-chromatography-coupled mass spectrometry (LC–MS); conditions: 2 µM
[19] = The drug is tested on Clostridium sporogenes strain: ATCC15579 for biotransformation. The drug concentrations were measured before and after a 12-h incubation by liquid-chromatography-coupled mass spectrometry (LC–MS); conditions: 2 µM
[20] = limosilactobacillus reuteri cf48-3a, 12 h, 2 µM
Description: The drug is tested on Lactobacillus reuteri CF48-3A strain: BEI HM-102 for biotransformation. The drug concentrations were measured before and after a 12-h incubation by liquid-chromatography-coupled mass spectrometry (LC–MS)

SMILES | Bacterial Biotransformation [1] | Bacterial Biotransformation [2] | Bacterial Biotransformation [3] | Bacterial Biotransformation [4] | Bacterial Biotransformation [5] | Bacterial Biotransformation [6] | Bacterial Biotransformation [7] | Bacterial Biotransformation [8] | Bacterial Biotransformation [9] | Bacterial Biotransformation [10] | Bacterial Biotransformation [11] | Bacterial Biotransformation [12] | Bacterial Biotransformation [13] | Bacterial Biotransformation [14] | Bacterial Biotransformation [15] | Bacterial Biotransformation [16] | Bacterial Biotransformation [17] | Bacterial Biotransformation [18] | Bacterial Biotransformation [19] | Bacterial Biotransformation [20]
CCCCC1=NC2(CCCC2)C(=O)N1Cc1ccc(-c2ccccc2-c2nnn[nH]2)cc1 [IRBESARTAN] | Compound NOT metabolized | Compound metabolized | Compound metabolized | Compound metabolized | Compound metabolized | Compound metabolized | Compound metabolized | Compound metabolized | Compound metabolized | Compound metabolized | Compound metabolized | Compound metabolized | Compound metabolized | Compound metabolized | Compound NOT metabolized | Compound metabolized | Compound NOT metabolized | Compound metabolized | Compound NOT metabolized | Compound metabolized
O=c1[nH]c2ccccc2n1C1CCN(CCCC(c2ccc(F)cc2)c2ccc(F)cc2)CC1 [PIMOZIDE] | Compound NOT metabolized | Compound NOT metabolized | Compound metabolized | Compound NOT metabolized | Compound NOT metabolized | Compound NOT metabolized | Compound NOT metabolized | Compound NOT metabolized | Compound NOT metabolized | Compound NOT metabolized | Compound NOT metabolized | Compound NOT metabolized | Compound NOT metabolized | Compound NOT metabolized | Compound NOT metabolized | Compound NOT metabolized | Compound NOT metabolized | Compound NOT metabolized | Compound NOT metabolized | Compound NOT metabolized
C[C@]12C=CC(=O)C=C1CC[C@@H]1[C@@H]2C(=O)C[C@@]2(C)[C@H]1CC[C@]2(O)C(=O)CO [PREDNISONE] | Compound NOT metabolized | Compound NOT metabolized | Compound NOT metabolized | Compound NOT metabolized | Compound NOT metabolized | Compound NOT metabolized | Compound NOT metabolized | Compound NOT metabolized | Compound NOT metabolized | Compound NOT metabolized | Compound NOT metabolized | Compound NOT metabolized | Compound NOT metabolized | Compound NOT metabolized | Compound NOT metabolized | Compound NOT metabolized | Compound NOT metabolized | Compound NOT metabolized | Compound NOT metabolized | Compound NOT metabolized
CN(C/C=C/C#CC(C)(C)C)Cc1cccc2ccccc12 [TERBINAFINE] | Compound NOT metabolized | Compound NOT metabolized | Compound NOT metabolized | Compound NOT metabolized | Compound NOT metabolized | Compound NOT metabolized | Compound NOT metabolized | Compound NOT metabolized | Compound NOT metabolized | Compound NOT metabolized | Compound NOT metabolized | Compound NOT metabolized | Compound NOT metabolized | Compound NOT metabolized | Compound NOT metabolized | Compound NOT metabolized | Compound NOT metabolized | Compound NOT metabolized | Compound NOT metabolized | Compound NOT metabolized
